Test system: IGROV1 complex spheroids (HUVEC, MSC), viability % test/control
Experiment: Anticancer human tumor IGROV1 cell line growth inhibition [GQUAD];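 also: spheroids exposed to compounds for 7 days before readout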
Conditions: for IC50: curve of first compound; for viability, T/C: stronger effect = lower value; active = viability on the fitted dose curve at most 10% of control; inactive = the rest
Text: DNA G-quadruplex Stabilizer Agents in Combinations in Complex Spheroids
A high-throughput screen of multi-cell type tumor spheroids was designed to identify active combinations of DNA G-quadruplex stabilizer agents and targeted small molecules. Complex spheroids include a stromal component modeled by human endothelial cells (HUVEC) and fibroblasts modeled by human mesenchymal stem cells (MSCs). The concentration ranges selected for each drug and investigational agent were based upon clinically achievable concentrations if the clinical Cmax of the agent was known.
Compounds. The drugs and investigational agents: pidnarulex (CX-5461; NSC782164), APTO-253 (NSC789042), BRACO-19 (NSC847499), peposertib (NSC802822), ceralasertib (NSC780249), elimusertib (NSC800525), camonsertib (NSC841442), AZD-1390 (NSC803789), olaparib (NSC753686), talazoparib (NSC767125), ART-558 (NSC835418), sotorasib (NSC818433), MRTX-1133 (NSC836407), SN-38 (NSC673596), topotecan (NSC609699), etoposide (NSC141540), doxorubicin (NSC123127), gemcitabine (NSC613327), 5-fluorouracil (NSC19893), paclitaxel (NSC125973), vemurafenib (NSC761431), panobinostat (NSC761190), R-306465 (JNJ-16241199; NSC773264), adavosertib (NSC754352), TP-3654 (NSC805149), carboplatin (NSC241240), KSQ-4279 (NSC840948), and staurosporine (NSC755774) were obtained from the National Cancer Institute (NCI) Developmental Therapeutics Program Chemical Repository (34). The FDA-approved anticancer drug set is available from the NCI Developmental Therapeutics Program. […] The stock solutions were prepared in dimethyl sulfoxide (DMSO, Sigma-Aldrich, St. Louis, MO, cat. D2650) at 800-fold the tested concentration and stored at -70 degrees C prior to their use. All drugs and investigational agents were tested over a range starting from a high concentration at or near the clinical Cmax and decreasing in half-log increments. If the clinical Cmax for an agent had not been determined, the highest concentration tested was 10 microM.
2.3 Cell Culture. All cells were maintained in an incubator at 37 degrees C and 5% CO2 with 95% humidity. The PDC lines were cultured according to standard operating procedures established by the NCI PDMR. All PDCs were thawed and cultured in Matrigel-coated flasks prepared with a working solution of 1X Ham's F-12 nutrient mix, without supplementation (Invitrogen, cat. 11765054), 100 U/mL penicillin-streptomycin (Invitrogen, cat. 15140122), and 2.5% Matrigel (Corning Inc., cat. 354248) for the first three passages. The 857933-349-R-J2-PDC line was cultured in 6C/Colon 1B media, which includes advanced DMEM/F-12 (Thermo Fisher Scientific, cat. 12634028), 10 mM HEPES (Thermo Fisher Scientific, cat. 15630080), 1X GlutaMAX supplement (Thermo Fisher Scientific, cat. 35050061), 0.1 mg/mL primocin (InvivoGen, cat. ant-pm-2), 10% defined fetal bovine serum, heat inactivated (HyClone Laboratories Inc., cat. SH30070.03HI), 50% L-WRN conditioned media (ATCC, cat. CRL-3276), 1.25 mM N-Acetyl-L-cysteine (Sigma-Aldrich, cat. A9165), 10 mM nicotinamide (Sigma-Aldrich, cat. N0636), 1X B-27 supplement (Thermo Fisher Scientific, cat. 17504044), 1X N-2 supplement (Thermo Fisher Scientific, cat. 17502048), 10 microM Y-27632 dihydrochloride (Tocris Bioscience, cat. 1254), and 50 ng/mL human EGF recombinant protein (Thermo Fisher Scientific, cat. PHG0311). The 485176-168-R4-J1-PDC line was cultured in Panc media, which includes all 6C/Colon 1B media components plus 100 ng/mL human FGF-10 (Thermo Fisher Scientific, cat. 100-26), 500 nM SB-431542 (Selleckchem, cat. S1067), and gastrin (Tocris, cat. 3006).
[…]

[1] = second compound 0.0316 µM, first compound 0.0316 µM
[2] = second compound 0.0316 µM, first compound 0.1 µM
[3] = second compound 0.0316 µM, first compound 0.316 µM
[4] = second compound 0.0316 µM, first compound 1 µM
[5] = second compound 0.0316 µM, first compound 3.16 µM
[6] = second compound 0.0316 µM, first compound 10 µM
[7] = second compound 0.1 µM, first compound 0.0316 µM
[8] = second compound 0.1 µM, first compound 0.1 µM
[9] = second compound 0.1 µM, first compound 0.316 µM
[10] = second compound 0.1 µM, first compound 1 µM
[11] = second compound 0.1 µM, first compound 3.16 µM
[12] = second compound 0.1 µM, first compound 10 µM
[13] = second compound 0.316 µM, first compound 0.0316 µM
[14] = second compound 0.316 µM, first compound 0.1 µM
[15] = second compound 0.316 µM, first compound 0.316 µM
[16] = second compound 0.316 µM, first compound 1 µM
[17] = second compound 0.316 µM, first compound 3.16 µM
[18] = second compound 0.316 µM, first compound 10 µM
[19] = second compound 1 µM, first compound 0.0316 µM
[20] = second compound 1 µM, first compound 0.1 µM
[21] = second compound 1 µM, first compound 0.316 µM
[22] = second compound 1 µM, first compound 1 µM
[23] = second compound 1 µM, first compound 3.16 µM
[24] = second compound 1 µM, first compound 10 µM
[25] = second compound 3.16 µM, first compound 0.0316 µM
[26] = second compound 3.16 µM, first compound 0.1 µM
[27] = second compound 3.16 µM, first compound 0.316 µM
[28] = second compound 3.16 µM, first compound 1 µM
[29] = second compound 3.16 µM, first compound 3.16 µM
[30] = second compound 3.16 µM, first compound 10 µM
[31] = second compound 10 µM, first compound 0.0316 µM
[32] = second compound 10 µM, first compound 0.1 µM
[33] = second compound 10 µM, first compound 0.316 µM
[34] = second compound 10 µM, first compound 1 µM
[35] = second compound 10 µM, first compound 3.16 µM
[36] = second compound 10 µM, first compound 10 µM

C=CC(=O)N1CCN(c2nc(=O)n(-c3c(C)ccnc3C(C)C)c3nc(-c4c(O)cccc4F)c(F)cc23)C(C)C1 (centres undefined) + Cc1cnc(CNC(=O)c2c(=O)c3ccc(N4CCCN(C)CC4)nc3n3c2sc2ccccc23)cn1
> 10000 nM: IC50 (second compound 0.0316 µM)
78.4 nM: IC50 (second compound 0.1 µM)
< 31.6 nM: IC50 (second compound 0.316 µM) | IC50 (second compound 1 µM) | IC50 (second compound 3.16 µM) | IC50 (second compound 10 µM)
inactive: viability, T/C [1] 82.8% | viability, T/C [2] 77.2% | viability, T/C [3] 88.5% | viability, T/C [4] 60.1% | viability, T/C [5] 94.6% | viability, T/C [6] 66.9% | viability, T/C [7] 51.8% | viability, T/C [8] 49.3% | viability, T/C [9] 51.4% | viability, T/C [10] 43.8% | viability, T/C [11] 46.6% | viability, T/C [12] 51.4% | viability, T/C [13] 27% | viability, T/C [14] 44.7% | viability, T/C [15] 39.8% | viability, T/C [16] 33.4% | viability, T/C [17] 44.9% | viability, T/C [18] 28.6% | viability, T/C [19] 18.5% | viability, T/C [20] 20.1% | viability, T/C [21] 17% | viability, T/C [22] 17.7% | viability, T/C [23] 26.8% | viability, T/C [24] 19.7% | viability, T/C [25] 10.2% | viability, T/C [26] 11.6% | viability, T/C [27] 11.6% | viability, T/C [28] 12.5% | viability, T/C [29] 15.6% | viability, T/C [30] 12.9% | viability, T/C [31] 12.3% | viability, T/C [32] 16.2% | viability, T/C [33] 16.6% | viability, T/C [34] 15.6% | viability, T/C [35] 14.6% | viability, T/C [36] 10%

CC1COCCN1c1cc(C2(S(C)(=N)=O)CC2)nc(-c2ccnc3[nH]ccc23)n1 (centres undefined) + Cc1cnc(CNC(=O)c2c(=O)c3ccc(N4CCCN(C)CC4)nc3n3c2sc2ccccc23)cn1
inactive: viability, T/C [1] 71.7% | viability, T/C [2] 62.6% | viability, T/C [3] 43.3% | viability, T/C [4] 15.1% | viability, T/C [5] 31.4% | viability, T/C [6] 5.8% | viability, T/C [7] 35.4% | viability, T/C [8] 36% | viability, T/C [9] 16.5% | viability, T/C [10] 10.8% | viability, T/C [13] 26.8% | viability, T/C [14] 20.6% | viability, T/C [15] 13.7% | viability, T/C [16] 7.83% | viability, T/C [19] 13.3% | viability, T/C [20] 17.7% | viability, T/C [21] 13.3% | viability, T/C [22] 8.94% | viability, T/C [25] 11.9% | viability, T/C [26] 10.2%
205 nM: IC50 (second compound 0.0316 µM)
active: viability, T/C [11] 12.8% | viability, T/C [12] 4.75% | viability, T/C [17] 13.6% | viability, T/C [18] 4.61% | viability, T/C [23] 11.2% | viability, T/C [24] 6.04% | viability, T/C [27] 10.9% | viability, T/C [28] 8.09% | viability, T/C [29] 10.3% | viability, T/C [30] 5.89% | viability, T/C [31] 9.84% | viability, T/C [32] 9.08% | viability, T/C [33] 9.32% | viability, T/C [34] 8.94% | viability, T/C [35] 9.55% | viability, T/C [36] 4.74%
< 31.6 nM: IC50 (second compound 0.1 µM) | IC50 (second compound 0.316 µM) | IC50 (second compound 1 µM) | IC50 (second compound 3.16 µM) | IC50 (second compound 10 µM)
